According to ChEMBL document CHEMBL1201862, “PubChem BioAssay data set” (2004):
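Where inhibition never reached the appropriate level, the endpoint shown equals the highest concentration tested. Otherwise, values were interpolated linearly from a five-concentration, 48-hour dose response in 96-well plates. At the GI50, growth is halved.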 Calls of active or inactive are those of the source. Cut-off read from the data, not from the text of the source: active = GI50 up to about 1.1 µM and inactive = higher.

Key:
Assay in all cases: growth of human tumour cells (NCI), 48 h
[1] = test system: 786-0
[2] = test system: A549
[3] = test system: ACHN
[4] = test system: BT-549
[5] = test system: CAKI-1
[6] = test system: CCRF-CEM
[7] = test system: COLO 205
[8] = test system: DU-145
[9] = test system: EKVX
[10] = test system: HCC 2998
[11] = test system: HCT-116
[12] = test system: HCT-15
[13] = test system: HL-60
[14] = test system: HOP-62
[15] = test system: HOP-92
[16] = test system: HT-29
[17] = test system: Hs-578T
[18] = test system: IGROV-1
[19] = test system: K562
[20] = test system: KM12
[21] = test system: M14
[22] = test system: MCF7
[23] = test system: MDA-MB-231
[24] = test system: MDA-MB-435
[25] = test system: MDA-N
[26] = test system: MOLT-4
[27] = test system: Malme-3M
[28] = test system: NCI-H226
[29] = test system: NCI-H460
[30] = test system: NCI-H522
[31] = test system: NCI/ADR-RES
[32] = test system: OVCAR-3
[33] = test system: OVCAR-4
[34] = test system: OVCAR-5
[35] = test system: OVCAR-8
[36] = test system: PC-3
[37] = test system: RPMI-8226
[38] = test system: RXF 393
[39] = test system: SF-268
[40] = test system: SF-295
[41] = test system: SF-539
[42] = test system: SK-MEL-28
[43] = test system: SK-MEL-2
[44] = test system: SK-MEL-5
[45] = test system: SK-OV-3
[46] = test system: SN12C
[47] = test system: SNB-19
[48] = test system: SNB-75
[49] = test system: SR
[50] = test system: SW-620
[51] = test system: T47D
[52] = test system: TK-10
[53] = test system: U-251
[54] = test system: UACC-257
[55] = test system: UACC-62
[56] = test system: UO-31
[57] = test system: A498
[58] = test system: LOX IMVI
[59] = test system: NCI-H23

Measured: GI50

N=C(N)c1ccc(/N=N\c2c(O)ccc3cc4c(/N=N\c5ccc(C(=N)N)cc5)c(O)ccc4cc23)cc1
inactive: [1] 49 µM | [2] > 100 µM | [3] > 100 µM | [4] > 100 µM | [5] > 100 µM | [6] 37.2 µM | [7] > 100 µM | [8] > 100 µM | [9] > 100 µM | [10] > 100 µM | [11] 50 µM | [13] 25.2 µM | [14] 45.4 µM | [15] > 100 µM | [16] 75.9 µM | [17] > 100 µM | [18] 51.5 µM | [19] 31.2 µM | [20] > 100 µM | [21] > 100 µM | [22] 87.9 µM | [23] 29 µM | [24] > 100 µM | [25] > 100 µM | [26] 37.8 µM | [27] > 100 µM | [28] > 100 µM | [29] 40.7 µM | [30] > 100 µM | [31] > 100 µM | [32] > 100 µM | [33] > 100 µM | [34] > 100 µM | [35] 80.4 µM | [36] > 100 µM | [37] 28 µM | [38] > 100 µM | [39] 95.3 µM | [40] 50.8 µM | [41] 94.8 µM | [42] > 100 µM | [43] > 100 µM | [44] 51.6 µM | [45] > 100 µM | [46] > 100 µM | [47] > 100 µM | [48] > 100 µM | [49] 26.6 µM | [50] 87.1 µM | [51] 96.8 µM | [52] > 100 µM | [53] 51.1 µM | [54] > 100 µM | [55] > 100 µM | [56] 53.1 µM
56 µM: [12]

CC1=CP(=O)(c2c(C(C)C)cc(C(C)C)cc2C(C)C)CCC1Cl (stereo unspecified)
active: [49] 0.769 µM
inactive: [1] 18.1 µM | [57] 15.9 µM | [2] 14.1 µM | [3] 15.9 µM | [4] 17.1 µM | [5] 16.8 µM | [6] 14.1 µM | [7] 14.9 µM | [8] 19.6 µM | [9] 16 µM | [11] 20.1 µM | [13] 13.7 µM | [14] 17 µM | [15] 13.6 µM | [16] 16.4 µM | [17] 27.5 µM | [18] 15.4 µM | [19] 10.2 µM | [20] 17.3 µM | [58] 18.8 µM | [21] 14 µM | [22] 15.4 µM | [23] 15.3 µM | [24] 17.7 µM | [25] 21.7 µM | [26] 6.7 µM | [27] 13.9 µM | [28] 19.1 µM | [59] 16.6 µM | [29] 16 µM | [30] 14.1 µM | [31] 15 µM | [32] 10.1 µM | [33] 19.3 µM | [34] 16.4 µM | [35] 21.2 µM | [36] 13.4 µM | [37] 13.3 µM | [38] 14.7 µM | [39] 16.3 µM | [40] 12.4 µM | [41] 17.1 µM | [42] 18.6 µM | [43] 16.1 µM | [44] 16.6 µM | [45] 19.4 µM | [46] 17.7 µM | [47] 14.4 µM | [48] 14 µM | [50] 21.6 µM | [51] 11.6 µM | [52] 15.9 µM | [53] 14.8 µM | [54] 11.6 µM | [55] 12 µM | [56] 13.9 µM
16 µM: [12]

CC(C)(C)OC(=O)N1C(OP(=O)(Oc2ccccc2)Oc2ccccc2)=CSc2ccccc21
37.5 µM: [12]
inactive: [1] 45.5 µM | [2] 67.8 µM | [3] 27.5 µM | [4] 48.4 µM | [5] 18.8 µM | [7] 20.4 µM | [8] 89.9 µM | [9] 31.8 µM | [10] 39.4 µM | [11] 30.2 µM | [13] 20.1 µM | [14] 47.6 µM | [15] 27.9 µM | [16] 50.2 µM | [17] 45.8 µM | [18] 38.1 µM | [19] 38.3 µM | [20] 32.8 µM | [58] 47.2 µM | [21] 25.8 µM | [22] 28.5 µM | [23] 24 µM | [24] 31.3 µM | [25] 34 µM | [26] 20.1 µM | [27] 27.7 µM | [28] 80.2 µM | [59] 37.4 µM | [29] 29.1 µM | [30] 27.1 µM | [31] 43.2 µM | [32] 31.3 µM | [33] 34 µM | [34] 68.9 µM | [35] 59 µM | [36] 47.8 µM | [37] 17.8 µM | [38] 41.8 µM | [39] 59 µM | [40] 29.3 µM | [41] 72.8 µM | [42] 26.5 µM | [43] 19.1 µM | [44] 28.2 µM | [45] 57.8 µM | [46] 56.6 µM | [47] 43.2 µM | [48] 31 µM | [49] 31.8 µM | [50] 41.2 µM | [51] 27.4 µM | [52] 35 µM | [53] 32.9 µM | [54] 31.6 µM | [55] 46.9 µM | [56] 27.4 µM
